Values of other authors in patent US20160022623A1, “COMPOSITION AND USE” (THE UNIVERSITY OF NOTTINGHAM, priority 2013, published 2016).

Legend:
[1] = 24 weeks
[2] = compared to control (euglycaemic hyperinsulinaemia)
[3] = morning following the clamp, overnight fast

## C[N+](C)(C)C[C@H](O)CC(=O)[O-] [L-carnitine]
[2]
  Decrease in insulin stimulated muscle PDC activation: 30%
  Decrease in muscle lactate accumulation: 40%
Intravenous infusion, 6 h clamp, at rest
  Increase in skeletal muscle total carnitine content: 15%
[3]
  Increase in muscle glycogen content: 30%
  Increase in muscle long-chain acyl-CoA content: 40%
[1]; 1.36 g L-carnitine with 80 g carbohydrate beverage twice daily
  Increase in muscle total carnitine content compared to carbohydrate feeding alone: 30%
[1]; low intensity exercise (50% VO2max)
  Reduction in muscle glycogen utilisation: 50%
[1]; low intensity exercise (50% VO2max), vs Control
  Increase in muscle free carnitine availability: 80%
